Converted amounts (≈) assume the structure as drawn.
Legend:
[1] = intranasal, human patients, anti-seizure activity; cited from earlier work
PTZ induced seizures = assay: Timed intravenous PTZ infusion test (ivPTZ); type: in vivo, mice; details: Lorazepam 2.5 mg/kg (Graph 5)
Source text: For investigation of anti-seizure activity of invented formulations, a timed intravenous PTZ infusion test was employed.
The technique of timed i.v. PTZ (pentylenetetrazole) infusion test (ivPTZ) is a simple, reproducible and fast method for assessment of onset, peak, duration and potency of various anticonvulsants and proconvulsants in animals. This test provides an extremely sensitive parametric method for assessing seizure threshold in individual animals and a quantifiable endpoint can be obtained with a minimal number of animals. Different seizure types can be chosen as endpoint in this test. Usually, the first seizure occurring during the PTZ infusion is a myoclonic twitch, followed by clonic and, later, tonic seizures. […]
During the infusion, mice are observed for the onset of different types of seizures. The time latencies from the start of infusion to the appearance of the first clonus (characterized by rapid involuntary rhythmic contraction and relaxation of limbs), lasting longer than 5 seconds, are recorded. […]
The infusion of PTZ will be terminated at 2 min, in case of non-appearance of clonic seizures. For such animals, the dose of PTZ in mg/kg infused during the course of 2 min is calculated as the threshold dose.
The threshold doses of PTZ producing clonic seizures are calculated (in mg/kg) using the following formula: […]

physchem = details: for solubility: oil or lipid
Protocol: After combining of pre-weighed amounts of components they were gently triturated at room temperature (20-22° C.) using a stainless steel spatula until liquid phase is formed.

[2] = Water solubility of Lorazepam in saline; details: saline or isotonic

For Cc1ncc2n1-c1ccc(Cl)cc1C(c1ccccc1F)=NC2 [Midazolam], which Onset of action [1] is on record?
The Onset of action was “approximately 10 minutes”.

For O=C1Nc2ccc(Cl)cc2C(c2ccccc2Cl)=NC1O (stereo not drawn) [Lorazepam], which “Time to maximal protection” value (PTZ induced seizures) is on record?
Its value is “approximately 5 minutes”.

What about the solubility (physchem; Lorazepam solubility in MCT with 5% Menthol, MCT oil + 5% Menthol by weight) of the same molecule?
The solubility was 5500 µg/mL.

And the solubility (physchem; Lorazepam solubility in MCT with 8% Menthol, MCT oil + 8% Menthol)?
Its solubility is 6800 µg/mL.

What about the solubility (physchem; Solubility in capric/caprylic triglycerides (MCT oil), pure MCT oil, RT) of the same molecule?
The solubility was 4300 µg/mL (≈ 13.4 mM).

What about the solubility (physchem; Solubility of Lorazepam in peppermint oil, peppermint oil containing about 45% of menthol) of the same molecule?
Its solubility is 38900 µg/mL (≈ 121 mM).

What about the “Increase of Lorazepam solubility, MCT with 5% Menthol” value (physchem; versus pure MCT oil) of the same molecule?
Its value is 28%.

What about the “Increase of Lorazepam solubility, MCT with 8% Menthol” value (physchem; versus pure MCT oil) of the same molecule?
The value was ~60%.

And the solubility [2]?
The solubility was ~27 µg/mL (≈ 0.0841 mM).

— patent publication US20160000702A1, “PHARMACEUTICAL COMPOSITION FOR ENHANCED TRANSMUCOSAL ADMINSTRATION OF BENZODIAZEPINES” (EASTGATE PHARMACEUTICALS INC., priority 2013, published 2016)
